Laboratory results taken from US10638754B2, “Methods of attracting Drosophila suzukii using acetoin blend” (The United States of America, as Represented by the …, priority 2016, dated 2020).

Assays:
D. suzukii [1] = assay: laboratory two-choice bioassay (treatment vs. blank control); format: in vivo, Drosophila suzukii; conditions: for attraction against blank control: 20 μL standard dose, FIG. 3D, 3E; for D. suzukii that made choice: 20 μL, FIG. 3E; for attraction compared to a blank control: 50 μL total volume, N=15, FIG. 3C
Method: Laboratory behavioral bioassay: To identify the key components for D. suzukii attraction from the apple juice 7-components blend, a two-choice laboratory bioassay (testing chemical or chemical blend vs. blank control) was used and different combinations of 7-components were evaluated. A complete test apparatus consisted of a plastic cup containing two trap tubes with two lure vials, and a water wick (FIG. 2). The plastic cups were clear, cylindrical polypropylene food containers (946 mL, diameter 114 mm, height 127 mm, Paper Mart, CA). […] The polystyrene trap tubes (95 mm×28.5 mm, same as those used in insect rearing) were labeled “T” for treatment and “B” for blank control, respectively, and were then given the appropriate lure. Lures were either tested chemical/chemical blends (unless otherwise indicated, 20 μL pure individual or blend) loaded onto a small cotton ball held within a small polyethylene lure vial (26 mm×8 mm×1.5 mm thickness, Just Plastic Ltd., Norwich, UK) or blank controls of plain cotton or cotton with solvent (in dose response trials) held in the same type of small lure vial. Each lure vial (open lid) was placed vertically within its trap tube and then the top of each trap tube was sealed with Parafilm® (Pechiney plastics packaging Inc. Menasha, Wis.) leaving only a 4 mm diameter hole in the center to provide an entrance for attracted flies. Each pair of loaded trap tubes were then placed vertically on opposite sides of the test cups with the entrance holes facing upwards. A water wick consisting of a glass scintillation vial (20 mL, VWR, PA) filled with deionized water and plugged with a cotton ball was laid on the bottom of the plastic cup to serve as a water source for the flies during the experiment (FIG. 2). Flies were immobilized using a CO2 stream and 10 were transferred into each testing apparatus. The fully-assembled test apparatus cups were then covered with their ventilated lids. All assays were conducted in a fume hood (120-cm-length×60-cm-width×70-cm-height) using new lures and young flies (2-8 days post-eclosion) under 25° C., 60% RH, and a 16:8 hour (L:D) photoperiod. Mixed-sex D. suzukii were used in bioassays unless stated otherwise, and all flies within and outside treatment and control trap tubes were counted and sexed after 48 hours.
All statistical comparisons were considered for significance at α=0.05.

D. suzukii [2] = assay: preliminary field test with baited traps, 2014; format: in vivo, Drosophila suzukii; conditions: for Mean ± SD (SWD captured): Oct. 17 to Oct. 24, 2014, 3 replicates; for Total no. SWD captured: Oct. 17 to Oct. 24, 2014, Beltsville, 3 replicates
Method: (§1) Field test: Commercially-available Victor® yellowjacket and flying insect traps (Great Lakes IPM Inc., Vestaburg, Mich.) filled with ˜300 mL of tap water containing a surfactant (Seventh Generation™ natural dish liquid—free and clear, Shoppers Food and Pharmacy, College Park, Md., 4 mL/gallon) as a drowning solution were used in all field tests at the Beltsville Agricultural Research Center-West, Beltsville, Md. (10300 Baltimore Ave., Beltsville, Md.) and at the blueberry field at Butler's Orchard (22222 Davis Mill Rd, Germantown, Md.). Unless otherwise indicated, pure chemical (individual or blend, 1 mL) was loaded onto a cotton ball held within a polypropylene flex micro-centrifuge tube (1.5 mL Eppendorf micro-centrifuge tube, VWR International, Radnor, Pa.) and the lid of the tube was then closed. Tubes filled only with a cotton ball were used as blank controls. The micro-centrifuge tube lure was opened and the lid was snapped into one of four holes on the cap of the Victor® trap, leaving the three remaining holes to serve as entrances for attracted insects. At the Beltsville Agricultural Research Center, traps were hung from the branches of trees on the edge of a small woodlot in blocks consisting of 3-5 treatments and 1 blank control with the traps spaced approximately 5 m apart within a group. The treatments were randomly arranged at different positions within the block and blocks were separated by 10-20 m. At the blueberry field in Butler's Orchard, traps were hung from the branches of blueberry bushes, deployed in blocks consisting of 3 treatments with the traps spaced approximately 5 m apart in a group. The traps were randomly arranged at different positions within the block and blocks were separated by 10-20 m.
The preliminary field tests were conducted at the Beltsville Agricultural Research Center during Oct. […] In 2015 and 2016, three additional treatments were formulated: treatment 14 ((2-components, including acetoin (AT) and ethyl octanoate (EO) in 1:1 ratio), treatment 16 (single-component, acetoin (AT)), and treatment 17 (single-component, ethyl octanoate (EO)). The rest of the compounds, including ethanol (EtOH) (10 mL) and acetic acid (AA) (1 mL), were added into drowning water and evaluated as individual attractant or synergistic attractive agent whenever needed. In 2016, ACV (300 mL, Essential Everyday®, 5% acidity, Shoppers Food and Pharmacy, College Park, Md.) and a commercially-available Scentry® SWD lure (Great Lakes IPM Inc., Vestaburg, Mich.) were used as standard lures for SWD attraction activity comparison. […] In addition, ethyl acetate (EA) (5 mL) and phenethyl alcohol (PE) (1 mL) were added to the drowning solution and evaluated as individual attractants or synergistic attractive agents. […] Flies were counted in the laboratory.

D. suzukii [3] = assay: field tests in 2015, baited traps; format: in vivo, Drosophila suzukii; conditions: for attraction of D. suzukii in the field: traps, Beltsville, late fall 2015, FIG. 4-6
Method: as §1
The preliminary field tests were conducted at the Beltsville Agricultural Research Center during Oct. 17 to 24, 2014, using six different lures: (1) apple juice blend (treatment 1, 7-components based on apple juice fermentation products (FIG. 1), including isobutanol (IB):2-methyl butanol (2MB):3-methyl butanol (3MB):ethyl hexanoate (EH):acetoin (AT):ethyl octanoate (EO):methyl benzoate (MB) in natural ratios of 4:7:7:0.3:1:0.3:2) (v/v)), (2) raspberry blend (11-components blend, including butyl acetate:hexanal:2-heptanone:3-methyl-butanol:trans-2-hexenal:3-methyl-2-butyl acetate:2-heptanol:hexanol:cis-3-hexenol:6-methyl-5-hepten-2-ol:linalool; obtained from Sigma-Aldrich; mixed into an 11-component blend in natural ratios of 1:36:3:5:10:2:7:8:9:2:8 (v/v), respectively))(Abraham, J. et al., Environ. Entomol., 44 (2): 356-367 (2015)), (3) single component (2-methyl butanol (2MB)), (4) 3-methyl butanol (3MB), (5) binary components blend ((2MB+3MB in 1:1 ratio)), and (6) blank control. In 2015 and 2016, three additional treatments were formulated: treatment 14 ((2-components, including acetoin (AT) and ethyl octanoate (EO) in 1:1 ratio), treatment 16 (single-component, acetoin (AT)), and treatment 17 (single-component, ethyl octanoate (EO)). The rest of the compounds, including ethanol (EtOH) (10 mL) and acetic acid (AA) (1 mL), were added into drowning water and evaluated as individual attractant or synergistic attractive agent whenever needed. In 2016, ACV (300 mL, Essential Everyday®, 5% acidity, Shoppers Food and Pharmacy, College Park, Md.) and a commercially-available Scentry® SWD lure (Great Lakes IPM Inc., Vestaburg, Mich.) were used as standard lures for SWD attraction activity comparison. The amount of AA in the drowning solution in each trap was increased from 1 mL to 15 mL to reach the same acidity (5%) with ACV. In addition, ethyl acetate (EA) (5 mL) and phenethyl alcohol (PE) (1 mL) were added to the drowning solution and evaluated as individual attractants or synergistic attractive agents. Lure dispenser tubes and trap drowning solutions with captured insects were collected and replaced every week unless otherwise indicated. Flies were counted in the laboratory.

[4] = lure release rate from micro-centrifuge tube dispensers; format: physicochemical; conditions: for first order rate constant k of desorption: 1 mL loading, micro-centrifuge tube dispenser, fume hood
Method: Lure Release Rate: Release rates of three different kinds of attractants, including acetoin (AT), ethyl octanoate (EO), and a blend of AT and EO (ratio=1:1), were measured under controlled conditions in a laboratory fume hood. Each attractant (1 mL) was loaded onto cotton balls held in open micro-centrifuge tubes (1.5 mL, VWR International, Radnor, Pa.). Fifteen of these micro-centrifuge tubes (five of each tested attractant) were suspended on hooks in a fume hood (temperature: 20-25° C., face velocity: 129 feet/min). Each tube was weighed every 24-h or 72-h (weekend) and the amount of attractant residue was calculated and recorded over a period of two weeks.

D. suzukii [5] = assay: field tests in 2016, baited traps; format: in vivo, Drosophila suzukii; conditions: Nov.-Dec. 2016, FIG. 7-11
Method: (§2) Field test: Commercially-available Victor® yellowjacket and flying insect traps (Great Lakes IPM Inc., Vestaburg, Mich.) filled with ˜300 mL of tap water containing a surfactant (Seventh Generation™ natural dish liquid—free and clear, Shoppers Food and Pharmacy, College Park, Md., 4 mL/gallon) as a drowning solution were used in all field tests at the Beltsville Agricultural Research Center-West, Beltsville, Md. (10300 Baltimore Ave., Beltsville, Md.) and at the blueberry field at Butler's Orchard (22222 Davis Mill Rd, Germantown, Md.). […]
(§3) The preliminary field tests were conducted at the Beltsville Agricultural Research Center during Oct. […] In 2015 and 2016, three additional treatments were formulated: treatment 14 ((2-components, including acetoin (AT) and ethyl octanoate (EO) in 1:1 ratio), treatment 16 (single-component, acetoin (AT)), and treatment 17 (single-component, ethyl octanoate (EO)). The rest of the compounds, including ethanol (EtOH) (10 mL) and acetic acid (AA) (1 mL), were added into drowning water and evaluated as individual attractant or synergistic attractive agent whenever needed. In 2016, ACV (300 mL, Essential Everyday®, 5% acidity, Shoppers Food and Pharmacy, College Park, Md.) and a commercially-available Scentry® SWD lure (Great Lakes IPM Inc., Vestaburg, Mich.) were used as standard lures for SWD attraction activity comparison. […]

other D. spp. = assay: field tests in 2015, baited traps, non-target catch; format: in vivo; conditions: EtOH combined with the AT+AA blend; field 2015; FIG. 4
Method: as §2, §3

Question: Which results are given for `CCC(C)CO` (stereo not shown) [2MB, 2-methyl-1-butanol]?
Answer: attraction against blank control (D. suzukii [1]; 48 h): repellent effect; D. suzukii that made choice (D. suzukii [1]; 48 h): 37%; Mean ± SD (SWD captured) (D. suzukii [2]): 1.00 ± 1.00c; Total no. SWD captured (D. suzukii [2]): 3

Question: With `CC(C)CCO` [3MB, 3-methyl-1-butanol] as the compound, how does the “Mean ± SD (SWD captured)” value (D. suzukii [2]) read?
Answer: 3.00 ± 1.00c

Question: And the “Total no. SWD captured” value (D. suzukii [2])?
Answer: 9

Question: For `CC(=O)O` [AA, acetic acid], which “attraction compared to a blank control” value (D. suzukii [1]) is on record?
Answer: not attractive

Question: And the “attraction of D. suzukii in the field” value (D. suzukii [3])?
Answer: inactive by itself

Question: With `CC(=O)C(C)O` (stereo not shown) [AT, 3-hydroxy-2-butanone] as the compound, how does the “attraction against blank control” value (D. suzukii [1]; 48 h) read?
Answer: elicited attraction

Question: And the “attraction against blank control” value (D. suzukii [1]; 48 h, listed as Acetoin)?
Answer: moderate activity

Question: And the “time to release 50% (half-life of dispenser, t1/2=0.693/k)” value [4]?
Answer: ~48 h

Question: What about the first order rate constant k of desorption [4] of the same compound?
Answer: 0.316 day⁻¹

Question: What about the “attraction of D. suzukii in the field” value (D. suzukii [3]) of the same compound?
Answer: significantly more attractive than EO

Question: With `CCOC(C)=O` [EA, ethyl acetate] as the compound, how does the “attraction of D. suzukii in the field” value (D. suzukii [5]) read?
Answer: not attractive in the field

Question: With `CCCCCCCC(=O)OCC` [EO, ethyl octanoate] as the compound, how does the “attraction against blank control” value (D. suzukii [1]; 48 h) read?
Answer: most attractive component

Question: What about the “D. suzukii that made choice” value (D. suzukii [1]; 48 h) of the same compound?
Answer: 96%

Question: What about the “Mean ± SD (D. suzukii captured in tubes)” value (D. suzukii [1]; 50 μL loading, 5 replicates of 10 flies, 48 h) of the same compound?
Answer: 9.80 ± 0.45a

Question: What about the Total no. captured (D. suzukii [1]; 50 μL loading, 5 replicates, 50 flies tested in total, 48 h) of the same compound?
Answer: 49

Question: What about the “effectiveness compared with other treatments” value (D. suzukii [1]; 50 μL loading, N=5) of the same compound?
Answer: captured significantly more D. suzukii than trap vials baited with treatment 1

Question: And the “attraction against blank control, dose response” value (D. suzukii [1]; all doses from 0.3 μL to 300 μL, FIG. 3F)?
Answer: Significantly attractive activities

Question: And the first order rate constant k of desorption [4]?
Answer: 0.049 day⁻¹

Question: And the “synergistic effect when combined with AA” value (D. suzukii [3]; field 2015)?
Answer: No synergistic effect

Question: And the “attraction of D. suzukii in the field” value (D. suzukii [3])?
Answer: did not show any activity at all

Question: What does the source list for `CCO` [EtOH, ethanol, reference compound]?
Answer: attraction compared to a blank control (D. suzukii [1]): significantly more attractive; SWD specificity of the blend (D. suzukii [3]; ethanol added to blend of AT and AA): ~30%; attraction of D. suzukii in the field (D. suzukii [3]): did not show significant activity; trap catch of non-target Drosophila (other D. spp.): attracted significantly more non-target Drosophila

Question: Which “attraction of D. suzukii in the field” value (D. suzukii [5]) does the source give for `OCCc1ccccc1` [PE, phenethyl alcohol] here?
Answer: did not show any activity
